Source: the NIST ThermoML archive (doi:10.1007/s10765-014-1730-1)

Details: Vibrating tube method; for mass density: Liquid; for specific volume: Gas

F/C=C\C(F)(F)F [(Z)-1,3,3,3-tetrafluoro-1-propene]
Details | mass density [kg/m3] | specific volume [m3/kg]
353.14 K, 33995 kPa | 1208 | –
353.15 K, 96.4 kPa | – | 0.26
353.15 K, 134.4 kPa | – | 0.185
353.15 K, 220.3 kPa | – | 0.112
353.15 K, 228.3 kPa | – | 0.107
353.15 K, 253.3 kPa | – | 0.096
353.15 K, 407.8 kPa | – | 0.057
353.15 K, 3719 kPa | 1080.1 | –
353.15 K, 14840 kPa | 1141.7 | –
353.15 K, 15847 kPa | 1146.1 | –
353.15 K, 16854 kPa | 1150.3 | –
353.15 K, 18882 kPa | 1158.4 | –
353.15 K, 19886 kPa | 1162.3 | –
353.15 K, 20899 kPa | 1166.1 | –
353.15 K, 22916 kPa | 1173.4 | –
353.15 K, 24928 kPa | 1180.3 | –
353.15 K, 25940 kPa | 1183.7 | –
353.15 K, 26948 kPa | 1186.9 | –
353.15 K, 27955 kPa | 1190.1 | –
353.15 K, 28958 kPa | 1193.2 | –
353.15 K, 29961 kPa | 1196.3 | –
353.15 K, 30974 kPa | 1199.3 | –
353.15 K, 31977 kPa | 1202.3 | –
353.15 K, 32988 kPa | 1205.2 | –
353.16 K, 926 kPa | 1057.5 | –
353.16 K, 1696 kPa | 1064.4 | –
353.16 K, 2698 kPa | 1072.4 | –
353.16 K, 4742 kPa | 1087.3 | –
353.16 K, 5750 kPa | 1093.9 | –
353.16 K, 6761 kPa | 1100.2 | –
353.16 K, 7770 kPa | 1106.2 | –
353.16 K, 8771 kPa | 1111.9 | –
353.16 K, 9787 kPa | 1117.4 | –
353.16 K, 10798 kPa | 1122.6 | –
353.16 K, 11809 kPa | 1127.7 | –
353.16 K, 12819 kPa | 1132.5 | –
353.16 K, 13828 kPa | 1137.2 | –
353.16 K, 17868 kPa | 1154.4 | –
353.16 K, 21904 kPa | 1169.8 | –
353.16 K, 23917 kPa | 1176.9 | –
355.15 K, 313.8 kPa | – | 0.077
358.15 K, 97.9 kPa | – | 0.26
358.15 K, 136.4 kPa | – | 0.186
358.15 K, 223.9 kPa | – | 0.112
358.15 K, 232 kPa | – | 0.107
358.15 K, 257.4 kPa | – | 0.096
358.15 K, 415 kPa | – | 0.057
360.15 K, 319.1 kPa | – | 0.077
363.13 K, 14901 kPa | 1116.7 | –
363.14 K, 1456 kPa | 1023.9 | –
363.14 K, 1771 kPa | 1027.2 | –
363.14 K, 2776 kPa | 1037.2 | –
363.14 K, 3803 kPa | 1046.4 | –
363.14 K, 4829 kPa | 1055 | –
363.14 K, 5830 kPa | 1062.7 | –
363.14 K, 6835 kPa | 1070 | –
363.14 K, 7849 kPa | 1076.9 | –
363.14 K, 8855 kPa | 1083.4 | –
363.14 K, 9860 kPa | 1089.5 | –
363.14 K, 10872 kPa | 1095.5 | –
363.14 K, 11879 kPa | 1101.1 | –
363.14 K, 12892 kPa | 1106.5 | –
363.14 K, 13892 kPa | 1111.7 | –
363.14 K, 15912 kPa | 1121.5 | –
363.14 K, 16917 kPa | 1126.2 | –
363.14 K, 17931 kPa | 1130.7 | –
363.14 K, 18936 kPa | 1135 | –
363.14 K, 19943 kPa | 1139.3 | –
363.14 K, 20949 kPa | 1143.4 | –
363.14 K, 21954 kPa | 1147.4 | –
363.14 K, 22956 kPa | 1151.2 | –
363.14 K, 23961 kPa | 1155 | –
363.14 K, 25973 kPa | 1162.3 | –
363.14 K, 26975 kPa | 1165.8 | –
363.14 K, 27982 kPa | 1169.3 | –
363.14 K, 29991 kPa | 1175.9 | –
363.14 K, 31998 kPa | 1182.3 | –
363.15 K, 99.3 kPa | – | 0.26
363.15 K, 138.4 kPa | – | 0.186
363.15 K, 227.4 kPa | – | 0.112
363.15 K, 235.7 kPa | – | 0.107
363.15 K, 261.4 kPa | – | 0.096
363.15 K, 422.2 kPa | – | 0.057
363.15 K, 24969 kPa | 1158.7 | –
363.15 K, 28984 kPa | 1172.6 | –
363.15 K, 30992 kPa | 1179.1 | –
363.15 K, 33009 kPa | 1185.4 | –
363.15 K, 34010 kPa | 1188.4 | –
365.15 K, 324.3 kPa | – | 0.077
368.15 K, 100.7 kPa | – | 0.26
368.15 K, 140.5 kPa | – | 0.186
368.15 K, 231 kPa | – | 0.112
368.15 K, 239.3 kPa | – | 0.107
368.15 K, 265.5 kPa | – | 0.096
368.15 K, 429.3 kPa | – | 0.057
370.15 K, 329.4 kPa | – | 0.077
373.15 K, 102.2 kPa | – | 0.26
373.15 K, 142.5 kPa | – | 0.186
373.15 K, 234.6 kPa | – | 0.112
373.15 K, 242.9 kPa | – | 0.107
373.15 K, 269.6 kPa | – | 0.096
373.15 K, 436.3 kPa | – | 0.057
375.15 K, 334.6 kPa | – | 0.077
